Here are results for 23 compounds from patent US12473304B2, “Heterocyclic PAD4 inhibitors” (BRISTOL-MYERS SQUIBB COMPANY, priority 2020, dated 2025).

Sequence of human PAD4 (hPAD4) (Q9UM07 whole entry): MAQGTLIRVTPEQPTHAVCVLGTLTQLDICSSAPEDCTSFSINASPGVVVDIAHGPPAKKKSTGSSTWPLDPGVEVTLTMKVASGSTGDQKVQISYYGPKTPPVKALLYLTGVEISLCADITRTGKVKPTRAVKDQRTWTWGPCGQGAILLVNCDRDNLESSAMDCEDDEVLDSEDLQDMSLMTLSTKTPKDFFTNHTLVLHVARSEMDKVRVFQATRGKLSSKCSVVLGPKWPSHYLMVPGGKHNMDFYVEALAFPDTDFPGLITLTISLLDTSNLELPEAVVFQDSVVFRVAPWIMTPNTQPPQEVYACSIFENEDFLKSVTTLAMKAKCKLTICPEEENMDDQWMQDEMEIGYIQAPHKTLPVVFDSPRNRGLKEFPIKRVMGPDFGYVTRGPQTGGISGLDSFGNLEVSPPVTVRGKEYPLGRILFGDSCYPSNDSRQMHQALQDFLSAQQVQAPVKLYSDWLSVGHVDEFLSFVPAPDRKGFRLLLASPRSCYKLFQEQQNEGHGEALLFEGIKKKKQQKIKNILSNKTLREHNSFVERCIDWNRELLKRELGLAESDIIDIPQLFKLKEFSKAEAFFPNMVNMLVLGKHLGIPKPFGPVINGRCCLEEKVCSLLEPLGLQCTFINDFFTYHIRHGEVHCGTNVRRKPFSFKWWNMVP

The experiment deals with human PAD4 (hPAD4) (Homo sapiens (Human), UniProt Q9UM07). The experiment can be described thus: RFMS Human PAD4 Functional Assay 1. Type of experiment: biochemical. The settings on record: RFMS assay 1; 5 nM hPAD4, 250 μM BAEE substrate, 50 μM calcium, 37° C. An outline of the steps:
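Citrullination product read by RapidFire triple-quad MRM against a modified-citrulline internal standard, after TCA stop and 30 min phenyl glyoxal step at 37 °C. Reaction: 250 μM BAEE, 5 nM human PAD4, 90 min at 37 °C, pH 7.5 HEPES buffer with 50 μM calcium and 5 μM TPEN, following 30 min compound–enzyme preincubation (max 50 μM).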
`Cc1c(-c2cc3cccc(OCCn4ccnc4)c3n2CC2CC2)nn2cc(C(=O)N3C[C@H](N)C[C@@H](F)C3)ccc12` [Example 574, (2-(7-(2-(1H-Imidazol-1-yl)ethoxy)-1-(cyclopropylmethyl)-1H-indol-2-yl)-3-methylpyrazolo[1,5-a]pyridin-6-yl)((3R,5R)-3-amino-5-fluoropiperidin-1-yl)methanone]: the IC50 (as a rule, the concentration that inhibits the measured activity by half) was 20 nM.
As for `Cc1c(-c2cc3cccc(OCCn4ccnc4)c3n2CC2CC2)nn2cc(C(=O)N3CCC[C@@H](N)C3)ccc12` [Example 575, (R)-(2-(7-(2-(1H-lmidazol-1-yl)ethoxy)-1-(cyclopropylmethyl)-1H-indol-2-yl)-3-methylpyrazolo[1,5-a]pyridin-6-yl)(3-aminopiperidin-1-yl)methanone], the figure is 60 nM; as for `Cc1c(-c2cc3cccc(OCCn4cncn4)c3n2CC2CC2)nn2cc(C(=O)N3CCC[C@@H](N)C3)ccc12` [Example 580, (R)-(2-(7-(2-(1H-1,2,4-Triazol-1-yl)ethoxy)-1-(cyclopropylmethyl)-1H-indol-2-yl)-3-methylpyrazolo[1,5-a]pyridin-6-yl)(3-aminopiperidin-1-yl)methanone], 60 nM.
The same measure for `Cc1c(-c2cc3cccc(OCCn4cncn4)c3n2CC2CC2)nn2cc(C(=O)N3C[C@H](N)C[C@@H](F)C3)ccc12` [Example 581, (2-(7-(2-(1H-1,2,4-Triazol-1-yl)ethoxy)-1-(cyclopropylmethyl)-1H-indol-2-yl)-3-methylpyrazolo[1,5-a]pyridin-6-yl)((3R, 5R)-3-amino-5-fluoropiperidin-1-yl)methanone]: 30 nM.
As for `Cc1c(-c2cc3cccc(OCCn4cc(N)cn4)c3n2CC2CC2)nn2cc(C(=O)N3CCC[C@@H](N)C3)ccc12` [Example 582, (R)-(2-(7-(2-(4-Amino-1H-pyrazol-1-yl)ethoxy)-1-(cyclopropylmethyl)-1H-indol-2-yl)-3-methylpyrazolo[1,5-a]pyridin-6-yl)(3-aminopiperidin-1-yl)methanone], the figure is 300 nM; as for `Cc1c(-c2cc3cccc(OCCn4cc(N)cn4)c3n2CC2CC2)nn2cc(C(=O)N3C[C@H](N)C[C@@H](F)C3)ccc12` [Example 583, (2-(7-(2-(4-Amino-1H-pyrazol-1-yl)ethoxy)-1-(cyclopropylmethyl)-1H-indol-2-yl)-3-methylpyrazolo[1,5-a]pyridin-6-yl)((3R,5R)-3-amino-5-fluoropiperidin-1-yl)methanone], 1610 nM.
`Cc1c(-c2cc3cccc(OC[C@@H]4CCC(=O)N4)c3n2CC2CC2)nn2cc(C(=O)N3CCC[C@@H](N)C3)ccc12` [Example 584, (S)-5-(((2-(6-((R)-3-Aminopiperidine-1-carbonyl)-3-methylpyrazolo[1,5-a]pyridin-2-yl)-1-(cyclopropylmethyl)-1H-indol-7-yl)oxy)methyl)pyrrolidin-2-one]: the IC50 was 50 nM.
The same measure for `Cc1c(-c2cc3cccc(OC[C@@H]4CCC(=O)N4)c3n2CC2CC2)nn2cc(C(=O)N3C[C@H](N)C[C@@H](F)C3)ccc12` [Example 585, (S)-5-(((2-(6-((3R,5R)-3-Amino-5-fluoropiperidine-1-carbonyl)-3-methylpyrazolo[1,5-a]pyridin-2-yl)-1-(cyclopropylmethyl)-1H-indol-7-yl)oxy)methyl)pyrrolidin-2-one]: 70 nM; for `Cc1c(-c2cc3cccc(OC[C@H]4CCC(=O)N4)c3n2CC2CC2)nn2cc(C(=O)N3CCC[C@@H](N)C3)ccc12` [Example 586, (R)-5-(((2-(6-((R)-3-Aminopiperidine-1-carbonyl)-3-methylpyrazolo[1,5-a]pyridin-2-yl)-1-(cyclopropylmethyl)-1H-indol-7-yl)oxy)methyl)pyrrolidin-2-one]: 150 nM.
Regarding `Cc1c(-c2cc3cccc(OC[C@H]4CCC(=O)N4)c3n2CC2CC2)nn2cc(C(=O)N3C[C@H](N)C[C@@H](F)C3)ccc12` [Example 587, (R)-5-(((2-(6-((3R,5R)-3-Amino-5-fluoropiperidine-1-carbonyl)-3-methylpyrazolo[1,5-a]pyridin-2-yl)-1-(cyclopropylmethyl)-1H-indol-7-yl)oxy)methyl)pyrrolidin-2-one], the IC50 is 1120 nM.
The same measure for `COc1cc(C(=O)N2C[C@H](N)C[C@@H](F)C2)cn2nc(-c3cc4ccnc(OCCn5cncn5)c4n3CC3CC3)c(C)c12` [Example 592, (2-(7-(2-(1H-1,2,4-Triazol-1-yl)ethoxy)-1-(cyclopropylmethyl)-1H-pyrrolo[2,3-c]pyridin-2-yl)-4-methoxy-3-methylpyrazolo[1,5-a]pyridin-6-yl)((3R,5R)-3-amino-5-fluoropiperidin-1-yl)methanone]: 30 nM; for `COc1cc(C(=O)N2CCC[C@@H](N)C2)cn2nc(-c3cc4ccnc(OCCn5cncn5)c4n3CC3CC3)c(C)c12` [Example 593, (R)-(2-(7-(2-(1H-1,2,4-Triazol-1-yl)ethoxy)-1-(cyclopropylmethyl)-1H-pyrrolo[2,3-c]pyridin-2-yl)-4-methoxy-3-methylpyrazolo[1,5-a]pyridin-6-yl)(3-aminopiperidin-1-yl)methanone]: 110 nM; for `COc1cc(C(=O)N2C[C@H](N)C[C@@H](F)C2)cn2nc(-c3cc4ccnc(OCCn5ccnc5C)c4n3CC3CC3)c(C)c12` [Example 594, ((3R,5R)-3-Amino-5-fluoropiperidin-1-yl)(2-(1-(cyclopropylmethyl)-7-(2-(2-methyl-1H-imidazol-1-yl)ethoxy)-1H-pyrrolo[2,3-c]pyridin-2-yl)-4-methoxy-3-methylpyrazolo[1,5-a]pyridin-6-yl)methanone]: 390 nM.
As for `COc1cc(C(=O)N2CCC[C@@H](N)C2)cn2nc(-c3cc4ccnc(OCCn5ccnc5C)c4n3CC3CC3)c(C)c12` [Example 595, (R)-(3-Aminopiperidin-1-yl)(2-(1-(cyclopropylmethyl)-7-(2-(2-methyl-1H-imidazol-1-yl)ethoxy)-1H-pyrrolo[2,3-c]pyridin-2-yl)-4-methoxy-3-methylpyrazolo[1,5-a]pyridin-6-yl)methanone], the figure is 1280 nM.
The same measure for `COc1cc(C(=O)N2CCC[C@@H](N)C2)cn2nc(-c3cc4ccnc(OCC5COC5)c4n3CC3CC3)c(C)c12` [Example 596, (R)-(3-Aminopiperidin-1-yl)(2-(1-(cyclopropylmethyl)-7-(oxetan-3-ylmethoxy)-1H-pyrrolo[2,3-c]pyridin-2-yl)-4-methoxy-3-methylpyrazolo[1,5-a]pyridin-6-yl)methanone]: 7390 nM.
As to `COc1cc(C(=O)N2C[C@H](N)C[C@@H](F)C2)cn2nc(-c3cc4ccnc(OCCn5ccnc5)c4n3CC3CC3)c(C)c12` [Example 597, (2-(7-(2-(1H-Imidazol-1-yl)ethoxy)-1-(cyclopropylmethyl)-1H-pyrrolo[2,3-c]pyridin-2-yl)-4-methoxy-3-methylpyrazolo[1,5-a]pyridin-6-yl)((3R,5R)-3-amino-5-fluoropiperidin-1-yl)methanone], the IC50 turned out to be 10 nM.
The same measure for `COc1cc(C(=O)N2CCC[C@@H](N)C2)cn2nc(-c3cc4ccnc(OCCn5ccnc5)c4n3CC3CC3)c(C)c12` [Example 598, (R)-(2-(7-(2-(1H-Imidazol-1-yl)ethoxy)-1-(cyclopropylmethyl)-1H-pyrrolo[2,3-c]pyridin-2-yl)-4-methoxy-3-methylpyrazolo[1,5-a]pyridin-6-yl)(3-aminopiperidin-1-yl)methanone]: 20 nM; for `COc1cc(C(=O)N2CCC[C@@H](N)C2)cn2nc(-c3cc4ccnc(OCCn5cnnc5)c4n3CC3CC3)c(C)c12` [Example 599, (R)-(2-(7-(2-(4H-1,2,4-Triazol-4-yl)ethoxy)-1-(cyclopropylmethyl)-1H-pyrrolo[2,3-c]pyridin-2-yl)-4-methoxy-3-methylpyrazolo[1,5-a]pyridin-6-yl)(3-aminopiperidin-1-yl)methanone]: 20 nM; for `COc1cc(C(=O)N2C[C@H](N)C[C@@H](F)C2)cn2nc(-c3cc4ccnc(OCCn5cnnc5)c4n3CC3CC3)c(C)c12` [Example 600, (2-(7-(2-(4H-1,2,4-Triazol-4-yl)ethoxy)-1-(cyclopropylmethyl)-1H-pyrrolo[2,3-c]pyridin-2-yl)-4-methoxy-3-methylpyrazolo[1,5-a]pyridin-6-yl)((3R,5R)-3-amino-5-fluoropiperidin-1-yl)methanone]: 30 nM.
With `COc1cc(C(=O)N2CC3CCC2[C@@H]3N)cn2nc(-c3cc4ccnc(OC[C@H]5CCC(=O)N5)c4n3CC3CC3)c(C)c12` (stereo partly drawn) [Example 604, (5R)-5-(((2-(6-((7R)-7-Amino-2-azabicyclo[2.2.1]heptane-2-carbonyl)-4-methoxy-3-methylpyrazolo[1,5-a]pyridin-2-yl)-1-(cyclopropylmethyl)-1H-pyrrolo[2,3-c]pyridin-7-yl)oxy)methyl)pyrrolidin-2-one], the IC50 was 30 nM.
For `Cc1c(-c2cc3ccnc(OCCn4cnnc4)c3n2CC2CC2)nn2cc(C(=O)N3CCC[C@@H](N)C3)ccc12` [Example 609, (R)-(2-(7-(2-(4H-1,2,4-Triazol-4-yl)ethoxy)-1-(cyclopropylmethyl)-1H-pyrrolo[2,3-c]pyridin-2-yl)-3-methylpyrazolo[1,5-a]pyridin-6-yl)(3-aminopiperidin-1-yl)methanone], the IC50 was determined as 40 nM.
As for `Cc1c(-c2cc3ccnc(OCCn4cncn4)c3n2CC2CC2)nn2cc(C(=O)N3C[C@H](N)C[C@@H](F)C3)ccc12` [Example 610, (2-(7-(2-(1H-1,2,4-Triazol-1-yl)ethoxy)-1-(cyclopropylmethyl)-1H-pyrrolo[2,3-c]pyridin-2-yl)-3-methylpyrazolo[1,5-a]pyridin-6-yl)((3R,5R)-3-amino-5-fluoropiperidin-1-yl)methanone], the figure is 430 nM; as for `Cc1c(-c2cc3ccnc(OCCn4ccnc4C)c3n2CC2CC2)nn2cc(C(=O)N3C[C@H](N)C[C@@H](F)C3)ccc12` [Example 611, ((3R,5R)-3-Amino-5-fluoropiperidin-1-yl)(2-(1-(cyclopropylmethyl)-7-(2-(2-methyl-1H-imidazol-1-yl)ethoxy)-1H-pyrrolo[2,3-c]pyridin-2-yl)-3-methylpyrazolo[1,5-a]pyridin-6-yl)methanone], 1560 nM.
